Laboratory results published in patent US20080287406A1, “Compositions and methods for treating medical conditions” (priority 2007, published 2008).
Where two headings read alike, the source gives them in different places.

Tests used:
[1] = test system: CRP; assay: CRP measurements in 14 week blinded, randomized study; format: in vivo, human; conditions: 3 mg Prednisolone + Placebo, N = 69, ITT (LOCF)
Procedure: CRP is an acute phase response protein whose production is stimulated by cytokines, particularly interleukin-6 (IL-6). The relationship between inflammatory processes and elevation in plasma CRP and pro-inflammatory cytokines is well known. Typically a serum CRP level of >3 mg/L is considered elevated. Serum CRP levels can be measured by standard techniques known in the art, e.g., ELISA assays (Kamiya Biomedical Co., Seattle, Wash.).
We conducted a 14 week blinded, randomized study including a split dose corticosteroid therapy or placebo, with regular CRP and inflammatory cytokine measurements. The study population had active rheumatoid arthritis.
(§1) Screening Visit • Day 1 (Baseline Visit)—Start of Run-In Period • Day 14 (±2 days)—End of Run-In Period/Start of Treatment Period • Day 42 (±2 days) • Day 70 (±2 days)—End of Treatment Period/Start of Withdrawal Period • Day 98 (±2 days)—End of Study
The powered study ended after these first 10 weeks. […] A schematic of the study design is shown below.

[2] = test system: active rheumatoid arthritis; conditions: 3 mg Prednisolone + Placebo, N = 69, ITT (LOCF)
Description: A visual analog scale (VAS) provides a measure of a one-dimensional quantity. A VAS generally utilizes a representation of distance, such as a picture of a line with hash marks drawn at regular distance intervals, e.g., ten 1-cm intervals. […] This procedure provides a simple and rapid approach to obtaining quantitative information about how the patient is experiencing pain. VAS scales can also be used, e.g., to measure fatigue. VAS scales and their use are described, e.g., in U.S. Pat. Nos. 6,709,406 and 6,432,937.
We conducted a 14 week blinded, randomized study including a split dose corticosteroid therapy or placebo, with regular CRP and inflammatory cytokine measurements. The study population had active rheumatoid arthritis. The subject must otherwise have been in good general health.
as §1
All eligible subjects received DMARD therapy in a stable dose. Subjects were evaluated for study eligibility at the Screening visit, which was conducted within 14 days before the first dose of study drug. The subject provided written informed consent to participate in the study before any Screening laboratory samples were collected or evaluations performed.
All subjects were given 3 mg prednisolone alone for 2 weeks (Run-In Period). Subjects were then randomized into treatment groups to additionally receive 10 mg paroxetine, 20 mg paroxetine or placebo tablets for 8 weeks (Combination Treatment Period). The powered study ended after these first 10 weeks. All subjects continued in an un-powered part of the study for an additional 4 weeks (Withdrawal Period). In this portion of the study, half of the subjects on 10 mg or 20 mg paroxetine plus 3 mg prednisolone stopped taking paroxetine, and instead took 3 mg prednisolone plus placebo, while the other half stopped taking prednisolone, and instead took either dose of paroxetine plus placebo. Similarly, half of the subjects on prednisolone plus placebo stopped the prednisolone, and instead took two placebo tablets, while the other half continued the regimen of 3 mg prednisolone plus placebo. A schematic of the study design is shown below.

SMILES: C[C@]12C=CC(=O)C=C1CC[C@@H]1[C@@H]2[C@@H](O)C[C@@]2(C)[C@H]1CC[C@]2(O)C(=O)CO [Prednisolone, prednisolone]
- CRP % Change from baseline, Mean ([1]; Day 14): 7.11%
- CRP Change from baseline, Mean ([1]; Day 14): −7.40
- CRP Value, Mean ([1]; Day 14): 11.42
- CRP % Change from baseline, Mean ([1]; Day 42): −17.67%
- CRP Change from baseline, Mean ([1]; Day 42): −8.61
- CRP Value, Mean ([1]; Day 42): 10.22
- CRP % Change from baseline, Mean ([1]; Day 70): −13.66%
- CRP Change from baseline, Mean ([1]; Day 70): −8.95
- CRP Value, Mean ([1]; Day 70): 9.88
- Patient Pain Assessment (VAS) Score % Change from baseline, Mean ([2]; Day 14): −13.65%
- Patient Pain Assessment (VAS) Score Change from baseline, Mean ([2]; Day 14): −7.73
- Patient Pain Assessment (VAS) Score Value, Mean ([2]; Day 14): 45.58
- Patient Pain Assessment (VAS) Score % Change from baseline, Mean ([2]; Day 42): −19.23%
- Patient Pain Assessment (VAS) Score Change from baseline, Mean ([2]; Day 42): −10.57
- Patient Pain Assessment (VAS) Score Value, Mean ([2]; Day 42): 42.74
- Patient Pain Assessment (VAS) Score % Change from baseline, Mean ([2]; Day 70): −17.84%
- Patient Pain Assessment (VAS) Score Change from baseline, Mean ([2]; Day 70): −12.28
- Patient Pain Assessment (VAS) Score Value, Mean ([2]; Day 70): 41.04
